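All cell lines were grown in 96-well plates and treated with compound for 48 hours. At the GI50, growth is halved. At the TGI there is no net growth.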
Columns and labels:
Experiment in all cases: DTP human tumour cell line panel, 48 h
NCI-H23 lung = tested on: NCI-H23 lung
ACHN renal = tested on: ACHN renal
RXF 393 renal = tested on: RXF 393 renal
TK-10 renal = tested on: TK-10 renal
HOP-62 NSCLC = tested on: HOP-62 NSCLC
A498 renal = tested on: A498 renal
NCI-H226 lung = tested on: NCI-H226 lung
KM12 colon = tested on: KM12 colon
MOLT-4 leukemia = tested on: MOLT-4 leukemia
SK-OV-3 ovarian = tested on: SK-OV-3 ovarian

With `CC(C)(O)CC(=O)NCCn1ccc2ncnc(Nc3ccc(Oc4cccc(C(F)(F)F)c4)c(Cl)c3)c21` the GI50 (NCI-H23 lung) was 3.76 µM, the TGI (NCI-H23 lung) was > 10 µM and the GI50 (ACHN renal) was 1.15 µM. The TGI (ACHN renal) was > 10 µM, the GI50 (RXF 393 renal) was 1.87 µM and the TGI (RXF 393 renal) was 4.31 µM. For the same compound, the GI50 (TK-10 renal) was 0.363 µM, the TGI (TK-10 renal) was > 10 µM and the GI50 (HOP-62 NSCLC) was 4.7 µM. For the same compound, the TGI (HOP-62 NSCLC) was > 10 µM, the GI50 (A498 renal) was 2.9 µM and the TGI (A498 renal) was > 10 µM. The GI50 (NCI-H226 lung) was 3.19 µM, the TGI (NCI-H226 lung) was > 10 µM and the GI50 (KM12 colon) was 3.67 µM. For the same compound, the TGI (KM12 colon) was > 10 µM, the GI50 (MOLT-4 leukemia) was 3.54 µM and the TGI (MOLT-4 leukemia) was > 10 µM. The GI50 (SK-OV-3 ovarian) was 0.284 µM and the TGI (SK-OV-3 ovarian) was > 10 µM.
For `CCOC(=O)C(=Cc1cccnc1C)C(=O)OCC`, the TGI (NCI-H23 lung) was 18.4 µM, the TGI (ACHN renal) was 29.5 µM and the TGI (RXF 393 renal) was 9.8 µM. The TGI (TK-10 renal) was 25.5 µM, the TGI (HOP-62 NSCLC) was 40.7 µM and the TGI (A498 renal) was 31 µM. It also gave a TGI (NCI-H226 lung) of 53.3 µM, a TGI (KM12 colon) of 12.9 µM and a TGI (MOLT-4 leukemia) of 46.9 µM. It also gave a TGI (SK-OV-3 ovarian) of 25 µM.
With `COc1ccc(OC)c(NC(=O)CCC/C(CC(=O)c2ccc(O)c(OC)c2)=N\Nc2ccc([N+](=O)[O-])cc2)c1` the TGI (NCI-H23 lung) was > 100 µM, the TGI (ACHN renal) was > 100 µM and the TGI (RXF 393 renal) was 78.6 µM. The TGI (TK-10 renal) was > 100 µM, the TGI (HOP-62 NSCLC) was > 100 µM and the TGI (A498 renal) was > 100 µM. For the same compound, the TGI (NCI-H226 lung) was > 100 µM, the TGI (KM12 colon) was > 100 µM and the TGI (MOLT-4 leukemia) was > 100 µM. The TGI (SK-OV-3 ovarian) was > 100 µM.
In the case of `Clc1nc(Cl)c2ncn(C/C=C/COc3cccc(OC/C=C/Cn4cnc5c(Cl)nc(Cl)nc54)c3)c2n1`, the GI50 (NCI-H23 lung) is reported as > 100 µM, the TGI (NCI-H23 lung) is reported as > 100 µM and the GI50 (ACHN renal) is reported as > 100 µM. The TGI (ACHN renal) was > 100 µM, the GI50 (RXF 393 renal) was 65 µM and the TGI (RXF 393 renal) was > 100 µM. The GI50 (TK-10 renal) was > 100 µM, the TGI (TK-10 renal) was > 100 µM and the GI50 (HOP-62 NSCLC) was 99.6 µM. For the same compound, the TGI (HOP-62 NSCLC) was > 100 µM, the GI50 (A498 renal) was > 100 µM and the TGI (A498 renal) was > 100 µM. For the same compound, the GI50 (NCI-H226 lung) was > 100 µM, the TGI (NCI-H226 lung) was > 100 µM and the GI50 (KM12 colon) was 56.5 µM. The TGI (KM12 colon) was > 100 µM, the GI50 (MOLT-4 leukemia) was 26.5 µM and the TGI (MOLT-4 leukemia) was > 100 µM. The GI50 (SK-OV-3 ovarian) was > 100 µM and the TGI (SK-OV-3 ovarian) was > 100 µM.

— PubChem BioAssay (NCI)
